# Data from patent publication US20220241240A1, “AGENTS AND METHODS FOR INCREASING STEM CELL FUNCTION” (priority 2019, published 2022).
# Assays:
# [1] = tested on: cord blood derived human HSPCs; assay: In vivo transplantation assay of UroA-cultured hHSPCs in new born NSG-SGM3 pups; settings: hHSPCs cultured 5 days with 50 μM UroA
# Method: Next, we cultured cord blood derived human HSPCs without or with UroA (50 μM) and performed two functional assays: Colony Forming Unit (CFU) assay—7 days post culture and in vivo transplantation assay in new born NSG-SGM3 pups—5 days post culture (FIG. 2B). […] Cryopreserved CD34+ cells isolated from foetal liver/cord blood were thawed and cultured in vitro in StemSpan (Stem cell tech) media supplemented with hSCF (100 ng/ml), hFLT3L (100 ng/ml), hTPO (50 ng/ml), hLDLP (10 μg/ml) and different concentrations of UroA (dissolved in DMSO) were added; an equal amount of DMSO was added to the control well. For longer culture periods half of the media was replenished every 2nd or 3rd day. NSG mice were purchased from Jackson Laboratory, bred and maintained under pathogen-free conditions in-house. For transplantation, one day old NSG pups were irradiated with 1 Gy (RS-2000, RAD SOURCE) and a few hours later injected intrahepatically with in vitro expanded HSCs. Each pup was injected with a cell mass derived from an initial 50,000 CD34+ cells post in vitro culture. Mice were bled at 12 weeks to estimate human reconstitution levels (% human CD45+ cells) in the peripheral blood. Antibody combinations were used to further estimate human B cells, T cells, monocytes, neutrophils and NK cells.
# mHSCs [2] = assay: In vivo reconstitution by UroA-cultured mHSCs in lethally irradiated recipient mice; parameters: species or system mouse; settings: mHSCs cultured 3 days with 20 μM UroA, injected into lethally irradiated mice
# Method: Having previously shown that lowering mitochondrial membrane potential enhances HSC function (Vannini, N. et al. (2016) Nat Commun 7: 13125), we asked if UroA treatment improves in vivo reconstitution potential of HSCs. To that end, we cultured freshly isolated mHSCs in basal media without or with UroA (20 μM). At the end of the culture period (3 days) cells were counted and injected into lethally irradiated recipient mice (FIG. 2A).
# (§1) Murine HSCs were sorted into 1.5 ml Eppendorf tubes and were cultured in Stemline II (SIGMA) supplemented with 100 ng/ml SCF (R&D) and 2 ng/ml Flt3 (R&D). Different concentrations as indicated of UroA (dissolved in DMSO) were added; an equal amount of DMSO was added to the control well.
# C57131/6 Ly5.2 mice were lethally irradiated with a total 8 Gy dose in a gamma radiator 24 h before transplant. Mice were injected with 200 donor cells post culture derived from C57131/6 Ly5.1 mice and 200,000 competitor cells derived from C57131/6 Ly5.1/5.2 mice, via tail-vein injection. Peripheral blood was collected every few weeks to determine the percentage of chimerism by FACS analysis.
# [3] = tested on: Human Cord-blood derived HSCPs; assay: Limiting transplantation experiment: survival of irradiated adult NSG mice given UroA-cultured HSPCs; type: in vivo; settings: HSPCs cultured three days with 50 μM UroA, 40,000 cells per irradiated adult NSG mouse; followed eight months; especially early post-transplant phases
# Method: A) Human cord blood derived HSPCs were cultured in basal media with or without 50 μM UroA. Three days post culture cells were counted and limiting dose (40,000 cells) was injected in each irradiated recipient adult NSG mouse and survival was monitored over several months.
# In order to check if a short in vitro treatment with UroA could improve the survival of irradiated recipients post transplantation we designed a limiting transplantation experiment. Human Cord-blood derived HSCPs were cultured for three days in the absence or presence of UroA. Post culture cells were counted and 40,000 cells were injected in each recipient mouse (irradiated NSG adult mice). We followed these mice for several months to check for post transplantation survival.
# mHSCs [4] = assay: QPCR gene expression analysis on cultured mHSCs; type: cell-based, mouse; settings: mHSCs cultured with 20 μM UroA versus without
# Method: To have analyse the molecular mechanisms by which UroA enhances HSC function, we performed gene expression analysis on mHSCs cultured in basal media with or without UroA (20 μM).
# RNA was extracted from HSCs post culture using ZR RNA MicroPrep (Zymo Research) and RNA extraction was performed accordingly to the manufacturer's instructions. RNA was retrotranscribed to cDNA with 1st strand cDNA kit (TAKARA) as per the manufacturer's instructions.
# For qPCR, 0.5 μl of cDNA, 5 μl of Power Syber Green mastermix (Applied Biosystem) and 500 nM of primers were used to a final volume of 10 μl for each reaction. The reactions were performed on the 7900HT system (Applied Biosystem).
# [5] = tested on: bone marrow derived mouse HSCs (mHSCs); assay: Mitochondrial membrane potential (TMRM) and mitochondrial mass (Mitotracker) in cultured mHSCs, flow cytometry; type: cell-based
# Method: We first tested the effect of UroA on bone marrow derived mouse HSCs (mHSCs) (FIG. 1A). Freshly isolated mHSCs (LKS CD150+CD48-) were cultured in basal media (Stemline+SCF+FLT3L+Penicillin/Streptomycin) supplemented with different concentrations of UroA. Cells were harvested at day 3 and stained with tetramethylrhodamine methyl ester (TMRM; to measure mitochondria membrane potential) and Mitotracker (to measure mitochondrial mass), and analysed by flow cytometry.
# Flow cytometry analysis was performed on freshly isolated bone marrow (BM) from C571316 mice. BM was extracted from crushed femora and tibia. Cell suspension was filtered through a 70 μm cell strainer and erythroid cells were eliminated by incubation with red blood cell lysis buffer (eBioscences). Isolation and stains were performed in ice-cold PBS 1 mM EDTA. Lineage positive cells were then removed with a magnetic lineage depletion kit (BD biosciences). Cell suspensions were then stained with specific antibodies for the stem cell compartment and sorted by FACS (BD FACS Aria 111) into 1.5 ml Eppendorf tubes.
# as §1
# Mouse HSCs already in culture were incubated at 37° C. for 1 hour with 200 nM tetramethylrhodamine methyl ester (TMRM; Invitrogen) and 100 nM Mitotracker green. Cells were then washed with FACS buffer and analysed by flow cytometry on a BD LSR II.
# [6] = tested on: human cord blood derived hematopoietic stem and progenitor cells (hHSPCs); assay: Mitochondrial membrane potential (TMRM) in cultured hHSPCs (CD34+), flow cytometry; type: cell-based; settings: days 3, 5 and 7, increasing doses of UroA
# Description: We then looked at the effect of UroA on human cord blood derived hematopoietic stem and progenitor cells (hHSPCs) (FIG. 1B). Cryopreserved hHSPCs (CD34+) were thawed and cultured in basal media (Stemspan+SCF+FLT3L+TPO+LDLP+Penicillin/Streptomycin) supplemented with different concentrations of UroA. Aliquots of cells were harvested at days 3, 5 and 7, followed by staining for CD34 and TMRM, and analysed by flow cytometry.
# Cryopreserved CD34+ cells isolated from foetal liver/cord blood were thawed and cultured in vitro in StemSpan (Stem cell tech) media supplemented with hSCF (100 ng/ml), hFLT3L (100 ng/ml), hTPO (50 ng/ml), hLDLP (10 μg/ml) and different concentrations of UroA (dissolved in DMSO) were added; an equal amount of DMSO was added to the control well. For longer culture periods half of the media was replenished every 2nd or 3rd day.
# Human HSCs already in culture were incubated at 37° C. for 1 hour with 200 nM TMRM (Invitrogen). Cells were then washed with FACS buffer, followed by staining with CD34 antibody for 1 hour at 4° C. Cells were washed with FACS buffer and analysed by flow cytometry on a BD LSR II.
# [7] = tested on: cord blood derived human HSPCs; assay: Colony Forming Unit (CFU) assay in methylcellulose; type: cell-based; settings: hHSPCs cultured 7 days with 50 μM UroA; colonies counted 15 days post plating; versus control
# Method: Next, we cultured cord blood derived human HSPCs without or with UroA (50 μM) and performed two functional assays: Colony Forming Unit (CFU) assay—7 days post culture and in vivo transplantation assay in new born NSG-SGM3 pups—5 days post culture (FIG. 2B). […] Cryopreserved CD34+ cells isolated from foetal liver/cord blood were thawed and cultured in vitro in StemSpan (Stem cell tech) media supplemented with hSCF (100 ng/ml), hFLT3L (100 ng/ml), hTPO (50 ng/ml), hLDLP (10 μg/ml) and different concentrations of UroA (dissolved in DMSO) were added; an equal amount of DMSO was added to the control well. For longer culture periods half of the media was replenished every 2nd or 3rd day. CFU assays were carried out using H4434 (Stem cell tech) as per the manufacturer's instructions. 1000 cells from each well were plated in duplicate. Colonies were counted 15 days post plating using Stem Vision (Stem cell tech).
# human HSCs = settings: culture media supplemented with nicotinamide riboside; cited from earlier work
Structure (SMILES),"human cell numbers in blood cell lineages ([1]; NSG-SGM3 mice, primarily lymphoid lineage (T and B cells))",human engraftment (proportion and absolute numbers) in blood ([1]; transplanted in irradiated NSG-SGM3 pups),reconstitution in myeloid and lymphoid lineages of the blood (mHSCs [2]),blood reconstitution levels of recipients (mHSCs [2]; versus cells cultured without UroA),post transplantation survival of recipient mice [3],"expression of ROS protection genes (Foxo1, SOD2), fold change (delta delta CT) (mHSCs [4])","expression of autophagy genes (ATGS, PARK2), fold change (delta delta CT) (mHSCs [4])","expression of glycolysis genes (HK2, Glut1), fold change (delta delta CT) (mHSCs [4])","proportion of cells in the TMRM low gate ([5]; mHSCs (LKS CD150+CD48-), day 3 of culture, increasing doses of UroA)","mitochondrial mass (Mitotracker staining) ([5]; mHSCs, day 3, 20 μM UroA)","mitochondrial mass (Mitotracker staining) ([5]; mHSCs, day 3, all concentrations of UroA)","TMRM fluorescent intensity (Mean Fluorescence Intensity, MFI) ([5]; mHSCs, day 3 of culture, increasing doses of UroA)","TMRM signal (Median Fluorescence Intensity, MFI) [6]",proportions of cells in the TMRM low gate [6],numbers of colonies (CFU assay) [7],levels of engraftment in primary and secondary recipient humanised mice (human HSCs)
"O=c1oc2cc(O)ccc2c2ccc(O)cc12 [UroA, 3,8-dihydroxyurolithin]",higher human cell numbers,increased human engraftment,This trend was reflected in both the myeloid and lymphoid lineages,higher reconstitution levels,significant improvement in survival,increased expression,increased expression,increased expression,step-wise increase,significant reduction,decrease in the mitochondrial mass,significant lowering,concomitant decrease of TMRM signal,increasing proportions of cells in the TMRM^low gate,significantly higher numbers of colonies,
NC(=O)c1ccc[n+]([C@@H]2O[C@H](CO)[C@@H](O)[C@H]2O)c1 [nicotinamide riboside],,,,,,,,,,,,,,,,significantly higher levels of engraftment
